From patent publication US20240141414A1, “CELL-FREE BIOSENSORS WITH DNA STRAND DISPLACEMENT CIRCUITS” (Northwestern University, priority 2021, published 2024)

What was measured:
Assay type in all cases: biochemical
SmtB = target: T1, SmtB (Synechococcus elongatus, UniProt P30340); assay: SmtB-regulated in vitro transcription with TMSD fluorescence output; settings: SmtB-regulated reaction, optimized smtO-Hairpin2-InvadeR design
T1 construct: 6xHis (C); made in house; host or cells: E. coli Rosetta 2(DE3)pLysS, pET-28c plasmid (pJBL725)
T1 sequence (P30340 with tags, fused parts or gaps): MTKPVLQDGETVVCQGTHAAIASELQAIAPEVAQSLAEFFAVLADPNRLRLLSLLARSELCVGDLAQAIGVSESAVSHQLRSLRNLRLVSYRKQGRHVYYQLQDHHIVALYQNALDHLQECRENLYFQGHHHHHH
Method: (§1) In addition to TetR, we chose TtgR [44] and SmtB [45] as representative aTFs of the MarR family and SmtB/ArsR family, respectively. We placed the cognate operator sequence of each aTF 2-bp downstream of the T7 promoter and immediately upstream of the InvadeR sequences (FIG. 4a-c). When tetracycline was used to induce TetR-regulated reactions, we observed a strong and robust fluorescent signal visible in ˜10 minutes (FIG. 4d, FIG. 13a). […] We note that we observed a slight decrease in the induction speed from the TtgR-regulated reactions compared to that of the TetR-regulated reactions, likely due to the reduced ttgO DNA template concentration needed to accommodate TtgR's relatively weak binding affinity to its operator sequence.
We were immediately successful in adapting the system to TetR and TtgR (FIG. 4a, b). […]
(§2) Regulated IVT reactions additionally included a purified aTF at the indicated concentration and were equilibrated at 37° C. for ˜10 minutes. Immediately prior to plate reader measurements, 2 ng of T7 RNAP and, optionally, a ligand at the indicated concentration were added to the reaction. Reactions were then characterized on a plate reader as described in Plate reader quantification and micromolar equivalent fluorescein (MEF) standardization.

TetR = target: T2, TetR (Escherichia coli, UniProt P04483)
T2 construct: made in house; host or cells: E. coli Rosetta 2(DE3)pLysS, pET-28c plasmid (pJBL701)
Text: Next, we sought to determine whether the transcription of InvadeR can be regulated with an aTF, thus creating a ligand-responsive biosensor that uses TMSD outputs. This required us to insert an aTF operator sequence in between the T7 promotor and InvadeR sequence to allow an aTF to regulate transcription. […] To test if this spacing remained important in the TMSD platform, we used TetR as our model aTF to determine the optimum spacing for efficient repression in the presence of TetR and efficient transcription in the absence of TetR [41]. […] However, robust fluorescence signal was observed without TetR when using a 2-bp spacer, which was reduced to nearly baseline levels when regulated by TetR. […]
Using the 2-bp spacer, we next determined whether TetR can be de-repressed with its cognate ligand, anhydrotetracycline (aTc) to allow transcription of InvadeR (FIG. 3c). […]
as §2

TtgR = target: T3, TtgR (Pseudomonas putida, UniProt Q88N29); assay: TtgR-regulated in vitro transcription with TMSD fluorescence output; settings: TtgR-regulated reactions, with and without ligand
T3 construct: made in house; host or cells: E. coli Rosetta 2(DE3)pLysS, pET-28c plasmid (pJBL721)
Method: as §1, §2

T3 sequence (Q88N29 other isoform, or with tags, fused parts or gaps): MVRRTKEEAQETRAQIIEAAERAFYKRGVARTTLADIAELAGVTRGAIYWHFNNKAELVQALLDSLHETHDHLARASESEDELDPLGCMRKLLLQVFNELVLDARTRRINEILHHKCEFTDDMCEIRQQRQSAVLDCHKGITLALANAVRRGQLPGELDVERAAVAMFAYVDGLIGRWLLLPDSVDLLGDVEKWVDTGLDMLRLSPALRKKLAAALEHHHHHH

**Q.** Which “fluorescence activation by ligand” value (SmtB) does the source give for `O=S(=O)([O-])[O-].[Zn+2]` [ZnSO4] here?
**A.** Its value is “clear activation of a SmtB-regulated reaction in the presence of ZnSO4 with low background signal”.

**Q.** With `Cc1c2c(c(O)c3c(O)cccc13)C(=O)[C@]1(O)C(=O)C(C(N)=O)=C(O)[C@@H](N(C)C)[C@@H]1C2` [aTc, anhydrotetracycline] as the compound, how does the “time until fluorescence is visible” value (TetR; TetR-regulated InvadeR output induced with the ligand (aTc 10 μM)) read?
**A.** Its value is about 10 min.

**Q.** What about the “speed of fluorescence activation relative to the RNA aptamer platform” value (TetR; equimolar amounts of DNA template, TetR and aTc) of the same compound?
**A.** The value was “approximately 5 times”.

**Q.** Which “fluorescence activation by ligand” value (TtgR) does the source give for `O=C1C[C@@H](c2ccc(O)cc2)Oc2cc(O)cc(O)c21` [naringenin] here?
**A.** The value was “robust fluorescence activation only in the presence of the ligand”.
